Common to all, as to format: cell-based
In one experiment the test system is porcine embryos. Description: Embryonic development and blastocyst formation after 144 hr IVC. The protocol: (§1) Porcine ovaries were obtained from 6- to 8-month-old non-cycling gilts (a crossbreed of Landrace x Large White) at the local slaughterhouse (Jatky Plzen a.s., Plzen, Czech Republic) and transported to laboratory at 39° C. Cumulus-oocyte complexes (COCs) were collected from ovarian follicles with a diameter of 2-5 mm by aspiration with a 20-gauge needle and handled in HEPES-buffered Tyrode lactate medium containing 0.01% (w/v) polyvinyl alcohol (TL-HEPES-PVA). Only fully grown oocytes with evenly dense cytoplasm, surrounded by compact cumuli, were selected for IVM and washed in maturation medium. The medium used for IVM was modified tissue culture medium (mTCM) 199 (Gibco, Life Technologies, UK) supplemented with 0.1% PVA, 3.05 mM D-glucose, 0.91 mM sodium pyruvate, […], 0.5 μg·mL^−1 LH (Sigma-Aldrich, USA), 0.5 μg·mL^−1 FSH (Sigma), 10 ng·mL^−1 epidermal growth factor (EGF; Sigma), 10% porcine follicular fluid, 75 μg·mL^−1 penicillin G and 50 μg·mL^−1 streptomycin. After 22 h of culture, the COCs were cultured in TCM199 without LH and FSH for an additional 22 h. The COCs were cultured in 500 μL of the medium covered by mineral oil in a four-well Petri dish (Nunc, Denmark), at 39° C. and 5% CO2 in air (Abeydeera et al. Theriogenology 50:747-756, 1998).
(§2) After 44 h of IVM, cumulus cells were removed with 0.1% hyaluronidase in TL-HEPES-PVA and the metaphase II (MII) oocytes with extruded first polar body were selected for IVF. The oocytes were washed three-times with modified Tris-buffered medium (mTBM; Abeydeera et al. Theriogenology 50:747-756, 1998) with 0.2% bovine serum albumin (BSA; A7888; Sigma) and placed into 100 μL drops of mTBM, covered with mineral oil in a 35 mm Petri dish. The dishes were allowed to equilibrate at 38.5° C. and 5% CO2 for 30 min before spermatozoa were added for fertilization. Spermatozoa were prepared as follows: 1 mL liquid semen preserved in BTS-based extender was washed twice in phosphate buffered saline (PBS) with 0.1% PVA (PBS-PVA) at 1500 rpm for 5 min. The last wash was supplemented with MitoTracker CMTRos (400 nM; M7510, Invitrogen) for 10 min at 39° C., used to tag sperm mitochondria that associate with the paternal pronucleus inside the fertilized oocytes. Labeled spermatozoa were resuspended in mTBM ([…]) and 1 μL of this sperm suspension was added to the medium containing the oocytes to give a final sperm concentration of 2.5 or 5×10^5 spermatozoa mL^−1. Oocytes were co-incubated with spermatozoa for 5 to 6 h at 38.5° C. and 5% CO2 in air. Thereafter, oocytes were washed and transferred into 100 μL PZM3 medium (Yoshioka et al. Biol Reprod 66:112-119, 2002) containing 0.4% BSA (A6003; Sigma) for further culture for 22 h. Simultaneously, presumed zygotes were cultured in 500 μL of PZM3 medium for 144 hrs to reach blastocyst stage. PZM3 was supplemented with the object of invention, i.e. N-benzyl-3,5-dicarbethoxy-4-phenyl-1,4-dihydropyridine, diluted in DMSO. Vehicle control contained DMSO only in equal concentration (0.1%). Tested concentrations of the compound are 1.5 and 3 μM, based on preliminary experiments evaluating the range 0.3-30 μM (see Table 1).
(§3) Within the imaging of 22 h zygotes, an assessment of penetration rate, creation of paternal pronucleus/pronuclei and monospermic fertilization was performed. Embryo cleavage was assessed by microscopy at 144 h of IVC. After 144 h of IVC, embryos were fixed in 2% formaldehyde for 40 min at room temperature (RT), washed three times with PBS, permeabilized with PBS-Triton X-100 for 30 min, and stained with 2.5 μg/mL DAPI (DNA staining; Molecular Probes, Eugene, Oreg., USA) for 40 min. Embryo cleavage, blastocyst formation, and cell number per blastocyst were assessed under an Eclipse Ci fluorescence microscope (Nikon Co., Tokyo, Japan).
(§4) Data are presented as the mean±S.E.M. of at least three independent experiments. […]

Experiment [1] has as its system H3K9me2/3 and H3K9ac in pronuclear chromatin of porcine zygotes. The experiment can be described thus: Zygote quality: methylation and acetylation of histone H3 on lysine K9 in pronuclear chromatin after IVF. The conditions noted are these: related to untreated vehicle, DMSO = 1, preliminary data. Here is the method:
as §2

The subject of experiment [2] is porcine oocytes and zygotes. Description: IVF results after 22 hr IVC (penetration rate, paternal pronucleus, monospermic fertilization). Here is the method:
as §1, §2, §3, §4

Setting [3] is: 3.0 μM, 22 hr IVC, calculated from penetrated oocytes.

Marks after values point to notes of the source that are not given here.

In the case of `Oc1ccc(C=Cc2cc(O)cc(O)c2)cc1` [Resveratrol, reference compound], in the experiment on porcine embryos (3 μM), the “Mean cell No. per blastocyst (mean ± SEM)” value is on record as 39.3 ± 11.3^a, the No. of blastocysts worked out at 4, the “No. of cleaved oocytes” value is recorded as 47 and the “blastocysts (mean % ± SEM)” value came out at 6.2 ± 2.8%. For the same molecule, the “cleaved oocytes (mean % ± SEM)” value in the experiment on porcine embryos (3 μM) turned out to be 67.7 ± 10.6%.
In experiment [1] (0.3 μM), `CCOC(=O)C1=CN(Cc2ccccc2)C=C(C(=O)OCC)C1c1ccccc1` [N-benzyl-3,5-dicarbethoxy-4-phenyl-1,4-dihydropyridine] gave an H3K9ac of 0.61 and an H3K9me2/3 of 2.72. In addition, in experiment [1] (3.0 μM), the H3K9ac is given as 0.63 and the H3K9me2/3 came to 1.64. In experiment [1] (30 μM), the H3K9ac was 1.36 and the H3K9me2/3 was determined as 0.76. The “penetrated oocytes (mean % ± SEM)” value in experiment [2] (3.0 μM, 22 hr IVC) came to 42.8%. In experiment [2] (setting [3]), the “No. of monospermic fertilization” value is on record as 39, the “No. of oocyte with PPN” value is 76, the “monospermic fertilization (mean % ± SEM)” value is on record as 42.4 ± 10.4% and the “oocyte with PPN (mean % ± SEM)” value is reported as 82.6 ± 6.7%. In addition, the “No. of penetrated oocytes” value in experiment [2] (3.0 μM, 22 hr IVC, of 215 oocytes) stood at 92. In addition, the polyspermic fertilization entry in experiment [2] (in the presence of compound, versus DMSO vehicle) was “higher polyspermic fertilization”. Besides, in the experiment on porcine embryos (1.5 μM), the “Mean cell No. per blastocyst (mean ± SEM)” value is 32.7 ± 2.5^a, the No. of blastocysts came out at 10, the “No. of cleaved oocytes” value was 47 and the “blastocysts (mean % ± SEM)” value was determined as 14.5 ± 7.2%. Moreover, in the experiment with porcine embryos (1.5 μM), the “cleaved oocytes (mean % ± SEM)” value is 70.2 ± 7.3%. Also, in the experiment on porcine embryos (3 μM), the “Mean cell No. per blastocyst (mean ± SEM)” value is 38.4 ± 4.2^a, the No. of blastocysts is given as 18, the “No. of cleaved oocytes” value worked out at 44 and the “blastocysts (mean % ± SEM)” value turned out to be 32.9 ± 8.1%. For the same molecule, the “cleaved oocytes (mean % ± SEM)” value with porcine embryos (3 μM) turned out to be 62.7 ± 7.1%. For the same molecule, the “efficiency compared with naturally occurring polyphenols (resveratrol)” value in the experiment with porcine embryos (comparison with resveratrol) is reported as “even more efficient than naturally occurring polyphenols”.
